{"source": "paper PMC4965148", "about": "(PLoS ONE, 2016)", "key": {"[1]": {"test_system": "MK-801 treated Sprague Dawley rats", "assay": "Rat MK-801 set shift procedure", "type": "in vivo", "procedure": "Studies followed the methods described in detail in [19] and are briefly summarized here. All rats were singly housed and food-restricted (15g/rat/day) for 7 days prior to initiation of training and for the duration of the study. At the time of testing, the average (± SEM) body weight for individual treatment groups ranged from 168 ± 4 g to 180 ± 6 g. Prior to the study several habituation sessions were conducted to familiarize subjects to the maze and task requirements. The maze consisted of 4 arms (40 cm long x 14 cm wide x 20 cm high) arranged in a ‘+’ configuration and the walls and floor of each arm were distinct and colored either black or white with either a rough or smooth texture (i.e. 1 arm with each of the following combinations: white/smooth, white/rough, black/smooth, black/rough). […] The arm opposite the blocked arm was designated as the ‘start arm’ and only 1 of the 2 remaining arms was baited with food pellets. The set shift procedure comprised 2 test sessions conducted over 2 consecutive days. On the first day (Set 1) rats were required to learn the association of either the color or texture of the maze arms with the location of a food reward. Animals were randomly assigned a correct exemplar within a given dimension as being predictive of reward with 50% of the rats assigned color and 50% assigned texture. Each rat was given a maximum of 120 trials on the maze which was rotated 90 degrees between successive trials so that the adjacent arms now became either the ‘start arm’ or the arm that was blocked. Animals were allowed to visit 1 of the 2 open arms and the trial recorded as correct if the arm with the pre-assigned exemplar was visited and the food reward retrieved. The inter-trial interval was 15 s. Rats were required to achieve a performance criterion of 8 consecutive entries into the rewarded arm at which point testing stopped and the animal was presumed to have learnt the association between the correct exemplar in the assigned dimension and food reward. On day 2 (Set 2) animals were again tested in the maze configured as described for Set 1 with the exception that the dimension predicting food reward was now switched (i.e. animals trained on color for Set 1 were switched to texture and visa versa). Correct performance was again defined as 8 consecutive entries into the rewarded arm with a maximal number of 80 trials allowed. All dosing was administered on day 2 prior to Set 2 testing."}, "[2]": {"test_system": "S(+)ketamine treated rats", "assay": "Rat S(+)ketamine N40 gating"}, "[3]": {"assay": "Plasma and brain concentrations after dosing", "type": "in vivo, mouse", "settings": "for Brain Mean ± SD / concentration at 30 min / Kp at 30 min: 30 min; for concentration at 60 min: sc, Mouse MK-801 Y Maze", "procedure": "Occupancy determinations were made either on completion of behavioral testing or in satellite groups of animals dosed in parallel with behavioral testing. At specified time points after dosing, the forebrain (for occupancy), the remaining hindbrain (for brain drug exposure) and plasma were collected, frozen in chilled isopentane and stored at -80°C until assayed. […] Homogenized tissue aliquots were frozen immediately and stored at -80°C. […] Non-specific binding was defined by adding 25 μM MLA to wells containing tissues from vehicle-treated animals. […] The filters were washed with ice-cold assay buffer, punched into a clear plate and 200 μl scintillation fluid added per well. Bound radioactivity was measured using a Wallac Microbeta liquid scintillation counter. Specific binding was calculated by subtracting the value of the non-specific binding from that of the total binding in each sample. The percent occupancy was calculated as [1 –(specific binding in drug treated mice/specific binding in vehicle treated mice)] x 100.\nIn brief, 50 μL of the plasma sample was extracted by protein precipitation with 150 μL acetonitrile containing an internal standard and 5 μL of supernatant injected into the LC-MS/MS system. Analytes were separated by reversed phase chromatography and detection of each analyte was achieved through selected reaction monitoring mode of mass spectrometry."}, "[4]": {"molecular_target": "Muscarinic M5 (Homo sapiens, UniProt P08912)", "sequence (P08912 whole entry)": "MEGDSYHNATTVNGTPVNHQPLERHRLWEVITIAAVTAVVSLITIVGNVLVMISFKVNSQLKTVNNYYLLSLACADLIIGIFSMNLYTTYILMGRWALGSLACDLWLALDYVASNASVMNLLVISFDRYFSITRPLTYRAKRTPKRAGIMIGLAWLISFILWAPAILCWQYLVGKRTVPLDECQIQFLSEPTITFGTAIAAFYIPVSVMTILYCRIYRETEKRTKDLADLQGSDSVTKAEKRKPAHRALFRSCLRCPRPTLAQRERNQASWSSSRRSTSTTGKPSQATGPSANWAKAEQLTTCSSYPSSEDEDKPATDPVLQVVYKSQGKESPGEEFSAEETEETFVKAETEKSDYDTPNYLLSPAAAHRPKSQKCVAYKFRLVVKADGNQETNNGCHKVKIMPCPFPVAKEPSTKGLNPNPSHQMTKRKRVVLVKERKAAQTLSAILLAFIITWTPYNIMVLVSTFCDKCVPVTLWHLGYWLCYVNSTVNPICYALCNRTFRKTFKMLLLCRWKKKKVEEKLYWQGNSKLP", "assay": "Selectivity panel, binding", "settings": "read-out: % inhibition @ 10 µM"}, "[5]": {"molecular_target": "Rat Brain α7 nAChR (Rattus norvegicus, UniProt Q05941)", "sequence (Q05941 23-502)": "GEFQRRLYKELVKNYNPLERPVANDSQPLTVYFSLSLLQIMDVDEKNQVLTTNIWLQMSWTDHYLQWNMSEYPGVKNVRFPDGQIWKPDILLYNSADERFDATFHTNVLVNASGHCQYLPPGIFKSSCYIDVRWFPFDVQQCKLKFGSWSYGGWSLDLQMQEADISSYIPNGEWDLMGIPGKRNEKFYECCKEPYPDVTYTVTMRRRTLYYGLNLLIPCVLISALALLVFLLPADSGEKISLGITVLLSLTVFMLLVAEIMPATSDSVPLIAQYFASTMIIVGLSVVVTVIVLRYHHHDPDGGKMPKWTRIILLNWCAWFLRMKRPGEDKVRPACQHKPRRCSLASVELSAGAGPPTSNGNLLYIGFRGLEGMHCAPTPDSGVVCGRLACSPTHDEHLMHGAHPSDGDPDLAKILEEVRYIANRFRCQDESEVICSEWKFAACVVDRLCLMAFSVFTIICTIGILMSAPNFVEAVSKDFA", "assay": "[3H]-A-585539 filtration binding"}, "[6]": {"molecular_target": "Glucocorticoid receptor (Homo sapiens, UniProt P04150)", "sequence (P04150 whole entry)": "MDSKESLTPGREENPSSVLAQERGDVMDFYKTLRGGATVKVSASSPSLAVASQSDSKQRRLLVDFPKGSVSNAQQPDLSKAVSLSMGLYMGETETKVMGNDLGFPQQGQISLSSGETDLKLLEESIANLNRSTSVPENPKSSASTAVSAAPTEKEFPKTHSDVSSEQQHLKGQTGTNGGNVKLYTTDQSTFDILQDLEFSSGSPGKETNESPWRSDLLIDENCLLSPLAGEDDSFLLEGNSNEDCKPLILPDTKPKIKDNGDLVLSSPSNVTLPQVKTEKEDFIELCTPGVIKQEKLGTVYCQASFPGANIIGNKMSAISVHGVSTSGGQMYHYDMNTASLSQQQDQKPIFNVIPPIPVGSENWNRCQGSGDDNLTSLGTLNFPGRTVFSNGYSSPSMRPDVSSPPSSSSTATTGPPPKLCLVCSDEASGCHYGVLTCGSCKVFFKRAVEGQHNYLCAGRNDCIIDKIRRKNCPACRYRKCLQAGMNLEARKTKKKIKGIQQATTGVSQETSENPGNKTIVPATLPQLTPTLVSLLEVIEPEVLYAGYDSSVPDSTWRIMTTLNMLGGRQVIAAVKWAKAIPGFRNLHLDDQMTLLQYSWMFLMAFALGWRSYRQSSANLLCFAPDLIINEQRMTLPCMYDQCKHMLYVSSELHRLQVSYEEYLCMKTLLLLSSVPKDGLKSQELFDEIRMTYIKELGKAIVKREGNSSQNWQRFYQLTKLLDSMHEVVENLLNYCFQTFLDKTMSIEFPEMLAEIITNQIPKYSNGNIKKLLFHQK", "assay": "Selectivity panel, binding"}, "[7]": {"test_system": "MK-801 treated mice", "assay": "Mouse MK-801 two trial Y maze", "type": "in vivo", "procedure": "Testing was conducted in a grey polyethylene plastic Y maze that had 3 arms, 2 of 40 cm length (test arms) and 1 of 20 cm length (start arm). Each arm had distinct optical cues covering the walls and a removable partition to occlude the arm as needed. The test consisted of a forced choice trial followed by a free-choice trial. For the forced choice trial the start arm and one test arm was open with access to the 2nd test arm blocked by the partition. Individual subjects were placed in the start arm and allowed to explore the open test arm for 8 min after which they were removed from the maze, placed in a holding cage and the maze was cleaned. Animals were then immediately placed back on the Y maze for the free choice trial and allowed to explore both open test arms for 4 min. The protocol was thus designed for minimal delay between the forced choice and free choice trials. […] For each subject the % time exploring the novel arm during the free choice trial was calculated using the formula: % novel time = novel time/(novel + familiar time) x 100."}, "[8]": {"molecular_target": "Androgen receptor (Rattus norvegicus, UniProt P15207)", "sequence (P15207 whole entry S389L)": "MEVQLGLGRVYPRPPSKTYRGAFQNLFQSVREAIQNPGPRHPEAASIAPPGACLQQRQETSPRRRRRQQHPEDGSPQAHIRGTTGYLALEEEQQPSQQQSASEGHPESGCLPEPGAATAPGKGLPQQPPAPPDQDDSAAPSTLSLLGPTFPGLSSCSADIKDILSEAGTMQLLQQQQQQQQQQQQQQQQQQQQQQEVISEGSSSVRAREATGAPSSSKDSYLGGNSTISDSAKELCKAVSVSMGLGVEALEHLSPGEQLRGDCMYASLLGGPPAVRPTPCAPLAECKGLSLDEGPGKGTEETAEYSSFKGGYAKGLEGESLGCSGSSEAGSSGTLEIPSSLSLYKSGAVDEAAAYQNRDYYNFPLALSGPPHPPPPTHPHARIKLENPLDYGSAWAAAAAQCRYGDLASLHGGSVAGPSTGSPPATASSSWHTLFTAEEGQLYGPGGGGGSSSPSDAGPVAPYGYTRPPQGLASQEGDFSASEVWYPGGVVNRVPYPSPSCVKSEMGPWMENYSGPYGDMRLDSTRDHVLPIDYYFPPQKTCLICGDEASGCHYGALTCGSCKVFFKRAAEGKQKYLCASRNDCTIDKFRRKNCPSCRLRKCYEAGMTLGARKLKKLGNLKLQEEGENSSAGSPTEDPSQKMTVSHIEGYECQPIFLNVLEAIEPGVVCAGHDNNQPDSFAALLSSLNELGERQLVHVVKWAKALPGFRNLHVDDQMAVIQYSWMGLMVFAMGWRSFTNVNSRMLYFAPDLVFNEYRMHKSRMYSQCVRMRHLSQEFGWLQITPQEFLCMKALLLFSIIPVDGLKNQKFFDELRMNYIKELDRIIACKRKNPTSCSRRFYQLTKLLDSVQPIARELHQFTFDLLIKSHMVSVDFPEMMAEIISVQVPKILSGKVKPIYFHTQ", "assay": "Selectivity panel, binding"}, "[9]": {"molecular_target": "T1, rat α3β4 nAChR (Rattus norvegicus, UniProt P04757+P12392)", "T1 construct": "expressed in transfected cells; host or cells: HEK293 (made by Bristol-Myers Squibb)", "T1 sequence (P04757 26-499)": "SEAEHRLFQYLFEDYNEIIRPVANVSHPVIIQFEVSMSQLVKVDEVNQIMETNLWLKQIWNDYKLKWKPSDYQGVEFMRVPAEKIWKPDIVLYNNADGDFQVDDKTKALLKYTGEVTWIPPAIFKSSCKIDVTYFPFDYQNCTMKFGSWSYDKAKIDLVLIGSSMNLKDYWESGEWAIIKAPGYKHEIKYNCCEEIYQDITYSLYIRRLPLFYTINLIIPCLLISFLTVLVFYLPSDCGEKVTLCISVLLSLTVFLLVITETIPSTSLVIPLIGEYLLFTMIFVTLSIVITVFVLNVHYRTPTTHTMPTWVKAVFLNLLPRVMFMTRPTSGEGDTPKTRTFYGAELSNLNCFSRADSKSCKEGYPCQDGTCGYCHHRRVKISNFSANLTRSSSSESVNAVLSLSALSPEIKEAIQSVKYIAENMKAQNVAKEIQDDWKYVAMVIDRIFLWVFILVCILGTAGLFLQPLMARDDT", "T1 sequence (P12392 21-495)": "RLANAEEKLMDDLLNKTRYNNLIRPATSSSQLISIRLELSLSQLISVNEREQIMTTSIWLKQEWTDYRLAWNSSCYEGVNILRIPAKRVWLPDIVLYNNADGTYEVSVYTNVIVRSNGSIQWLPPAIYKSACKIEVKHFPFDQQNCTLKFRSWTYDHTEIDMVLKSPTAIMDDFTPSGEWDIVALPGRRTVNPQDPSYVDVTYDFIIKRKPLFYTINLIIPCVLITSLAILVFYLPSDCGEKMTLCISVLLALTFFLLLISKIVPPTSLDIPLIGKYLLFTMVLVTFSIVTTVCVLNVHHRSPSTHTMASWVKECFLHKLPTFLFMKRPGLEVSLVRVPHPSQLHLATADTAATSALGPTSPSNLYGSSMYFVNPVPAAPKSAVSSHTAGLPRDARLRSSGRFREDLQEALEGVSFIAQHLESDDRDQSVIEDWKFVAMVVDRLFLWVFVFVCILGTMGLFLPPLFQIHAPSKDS", "assay": "Ca2+ flux (FLIPR) agonist/antagonist assay", "type": "cell-based", "settings": "FLIPR antagonist mode, EC90 ACh"}}, "note": "Values joined by “and” are separate entries in the source; they are usually repeats but may differ in a detail not shown here. Equal entries are not always repeated. Where two headings read alike, the source gives them in different places.", "data": [{"smiles": "c1cn(-c2cc(NC3=NC[C@@]4(CN5CCC4CC5)O3)ncn2)cn1", "note": "[BMS-933043, (2R)-N-(6-(1H-imidazol-1-yl)-4-pyrimidinyl)-4'H-spiro[4-azabicyclo[2.2.2]octane-2,5'-[1,3]oxazol]-2'-amine]", "values": [{"measurement": "Number of trials to criteria Mean ± SEM", "setting": "[1]; 0.3 mg/kg po / MK-801, 0.3-3 mg/kg study", "value": "66.4 ± 3.2"}, {"measurement": "Number of trials to criteria Mean ± SEM", "setting": "[1]; 1 mg/kg po / MK-801, 0.3-3 mg/kg study", "value": "54.4 ± 4.8"}, {"measurement": "Number of trials to criteria Mean ± SEM", "setting": "[1]; 3 mg/kg po / MK-801, 0.3-3 mg/kg study", "value": "50.3 ± 4.3"}, {"measurement": "Number of trials to criteria Mean ± SEM", "setting": "[1]; 3 mg/kg po / MK-801, 3-30 mg/kg study", "value": "48.3 ± 5.8"}, {"measurement": "Number of trials to criteria Mean ± SEM", "setting": "[1]; 10 mg/kg po / MK-801, 3-30 mg/kg study", "value": "54.0 ± 3.2"}, {"measurement": "Number of trials to criteria Mean ± SEM", "setting": "[1]; 30 mg/kg po / MK-801, 3-30 mg/kg study", "value": "68.0 ± 4.7"}, {"measurement": "perseverative errors in MK-801-treated animals", "setting": "[1]; po", "value": "decreased perseverative errors"}, {"measurement": "deficit in N40 gating following S(+)ketamine", "setting": "[2]; 0.3 and 10 mg/kg sc", "value": "neither the lowest dose (0.3 mg/kg; data not shown) nor the highest dose (10 mg/kg) tested were significantly different"}, {"measurement": "deficit in N40 gating following S(+)ketamine", "setting": "[2]; 0.56, 1 and 3 mg/kg sc", "value": "significant reduction"}, {"measurement": "Active dose range, S(+)Ketamine N40 gating", "setting": "[2]; sc", "value": "0.56–3.0 (sc) mg/kg"}, {"measurement": "Brain Mean ± SD", "setting": "[3]; Mouse NOR (0.03-1 mg/kg study), 0.03 mg/kg sc", "value": "< LLQ"}, {"measurement": "Brain Mean ± SD", "setting": "[3]; Mouse NOR (0.03-1 mg/kg study), 0.10 mg/kg sc", "value": "< LLQ"}, {"measurement": "concentration at 30 min", "setting": "[3]; mouse, brain, subcutaneous, 0.3 mg/kg, Mouse NOR (0.03-1 mg/kg study), 0.30 mg/kg sc, read-out: Brain Mean ± SD", "value": "24 ± 3.9", "unit": "nM"}, {"measurement": "concentration at 30 min", "setting": "[3]; mouse, brain, subcutaneous, 1 mg/kg, Mouse NOR (0.03-1 mg/kg study), 1 mg/kg sc, read-out: Brain Mean ± SD", "value": "78 ± 5.2", "unit": "nM"}, {"measurement": "concentration at 30 min", "setting": "[3]; mouse, brain, subcutaneous, 1 mg/kg, Mouse NOR (1-10 mg/kg study), 1 mg/kg sc, read-out: Brain Mean ± SD", "value": "97 ± 16", "unit": "nM"}, {"measurement": "concentration at 30 min", "setting": "[3]; mouse, brain, subcutaneous, 3 mg/kg, Mouse NOR (1-10 mg/kg study), 3 mg/kg sc, read-out: Brain Mean ± SD", "value": "297 ± 48", "unit": "nM"}, {"measurement": "concentration at 30 min", "setting": "[3]; mouse, brain, subcutaneous, 10 mg/kg, Mouse NOR (1-10 mg/kg study), 10 mg/kg sc, read-out: Brain Mean ± SD", "value": 1110, "unit": "nM"}, {"measurement": "Kp at 30 min", "setting": "[3]; mouse, brain/plasma, subcutaneous, 0.3 mg/kg, Mouse NOR (0.03-1 mg/kg study), 0.30 mg/kg sc", "value": 0.12}, {"measurement": "Kp at 30 min", "setting": "[3]; mouse, brain/plasma, subcutaneous, 1 mg/kg, Mouse NOR (0.03-1 mg/kg study), 1 mg/kg sc", "value": 0.11}, {"measurement": "Kp at 30 min", "setting": "[3]; mouse, brain/plasma, subcutaneous, 1 mg/kg, Mouse NOR (1-10 mg/kg study), 1 mg/kg sc", "value": 0.21}, {"measurement": "Kp at 30 min", "setting": "[3]; mouse, brain/plasma, subcutaneous, 3 mg/kg, Mouse NOR (1-10 mg/kg study), 3 mg/kg sc", "value": 0.19}, {"measurement": "Kp at 30 min", "setting": "[3]; mouse, brain/plasma, subcutaneous, 10 mg/kg, Mouse NOR (1-10 mg/kg study), 10 mg/kg sc", "value": 0.2}, {"measurement": "Kp", "setting": "[3]; mouse, brain/plasma, subcutaneous, mice, read-out: average brain/plasma", "value": 0.17}, {"measurement": "concentration at 60 min", "setting": "[3]; mouse, plasma, 0.03 mg/kg, 0.03 mg/kg sc, read-out: Plasma Mean ± SD", "value": "5 ± 0.4", "unit": "nM"}, {"measurement": "concentration at 60 min", "setting": "[3]; mouse, plasma, 0.1 mg/kg, 0.10 mg/kg sc, read-out: Plasma Mean ± SD", "value": "21 ± 2.4", "unit": "nM"}, {"measurement": "concentration at 60 min", "setting": "[3]; mouse, plasma, 0.3 mg/kg, 0.30 mg/kg sc, read-out: Plasma Mean ± SD", "value": "94 ± 19", "unit": "nM"}, {"measurement": "concentration at 60 min", "setting": "[3]; mouse, plasma, 1 mg/kg, 1 mg/kg sc, read-out: Plasma Mean ± SD", "value": "254 ± 32", "unit": "nM"}, {"measurement": "concentration at 60 min", "setting": "[3]; mouse, plasma, 3 mg/kg, 3 mg/kg sc, read-out: Plasma Mean ± SD", "value": "774 ± 282", "unit": "nM"}, {"measurement": "concentration at 60 min", "setting": "[3]; mouse, plasma, 10 mg/kg, 10 mg/kg sc, read-out: Plasma Mean ± SD", "value": 2980, "unit": "nM"}, {"measurement": "concentration at 30 min", "setting": "[3]; mouse, plasma, subcutaneous, 0.03 mg/kg, Mouse NOR (0.03-1 mg/kg study), 0.03 mg/kg sc, read-out: Plasma Mean ± SD", "value": "14 ± 2.7", "unit": "nM"}, {"measurement": "concentration at 30 min", "setting": "[3]; mouse, plasma, subcutaneous, 0.1 mg/kg, Mouse NOR (0.03-1 mg/kg study), 0.10 mg/kg sc, read-out: Plasma Mean ± SD", "value": "52 ± 3.6", "unit": "nM"}, {"measurement": "concentration at 30 min", "setting": "[3]; mouse, plasma, subcutaneous, 0.3 mg/kg, Mouse NOR (0.03-1 mg/kg study), 0.30 mg/kg sc, read-out: Plasma Mean ± SD", "value": "213 ± 49", "unit": "nM"}, {"measurement": "concentration at 30 min", "setting": "[3]; mouse, plasma, subcutaneous, 1 mg/kg, Mouse NOR (0.03-1 mg/kg study), 1 mg/kg sc, read-out: Plasma Mean ± SD", "value": "719 ± 69", "unit": "nM"}, {"measurement": "concentration at 30 min", "setting": "[3]; mouse, plasma, subcutaneous, 1 mg/kg, Mouse NOR (1-10 mg/kg study), 1 mg/kg sc, read-out: Plasma Mean ± SD", "value": "459 ± 59", "unit": "nM"}, {"measurement": "concentration at 30 min", "setting": "[3]; mouse, plasma, subcutaneous, 3 mg/kg, Mouse NOR (1-10 mg/kg study), 3 mg/kg sc, read-out: Plasma Mean ± SD", "value": 1570, "unit": "nM"}, {"measurement": "concentration at 30 min", "setting": "[3]; mouse, plasma, subcutaneous, 10 mg/kg, Mouse NOR (1-10 mg/kg study), 10 mg/kg sc, read-out: Plasma Mean ± SD", "value": 5560, "unit": "nM"}, {"measurement": "inhibition at 10 µM", "setting": "[4]", "value": 8, "unit": "%"}, {"measurement": "Ki", "setting": "[5]; Rat Brain α7 nAChR Ki (individual)", "value": "2.67 nM and 2.99 nM and 3.08 nM and 3.74 nM and 3.2 nM and 3.82 nM"}, {"measurement": "Ki", "setting": "[5]; Rat Brain α7 nAChR Mean ± SD Ki", "value": 3, "unit": "nM"}, {"measurement": "Ki", "setting": "[5]; read-out: Rat Brain α7 nAChR Mean ± SD Ki", "value": 3.3, "unit": "nM"}, {"measurement": "IC50", "setting": "[6]", "value": "> 150000", "unit": "nM"}, {"measurement": "time spent in the novel arm in MK-801-treated mice", "setting": "[7]; doses of 1, 3 and 10 mg/kg sc", "value": "significantly increased time spent in the novel arm"}, {"measurement": "Active dose range, MK-801 Y maze", "setting": "[7]; sc", "value": "1–10 (sc) mg/kg"}, {"measurement": "IC50", "setting": "[8]", "value": "> 150000", "unit": "nM"}, {"measurement": "IC50", "setting": "[9]", "value": "> 30000", "unit": "nM"}]}]}
